The results in this text go back to patent US7271168B2, “Piperazine derivatives having SST1 antagonistic activity” (Novartis AG, priority 2001, dated 2007).

For assay [1], the target named is somatostatin receptors (sst1) (Mus musculus, UniProt P30873). The assay can be described thus: somatostatin receptor affinity (pKd), mouse. It counts as binding. From the text: (§1) The following pKd values have been found:
For a further assay, the system named is intruder rat. The experiment in a line: intruder test (intruder rat towards resident rat). It counts as in vivo.
For the next assay, the system named is mice. The experiment in a line: social recognition test. It counts as in vivo. As to conditions: social recognition test in mice. The procedure: Moreover when given at doses of about 0.03 to 3 mg/kg p.o. to rodents, the agents of the invention counteract electroshock-induced amnesia, increase retention performance in a passive avoidance paradigm (Mondadori et. al., Pharmacology Communications 1992, 2: 93-97) and improve social recognition (Mondadori et al., Behavioural Brain Research 1996, 77: 227-229). The compounds are therefore indicated for the treatment of cognitive disturbances and learning/memory disorders.

Assay [2] has as its target somatostatin receptors (sst1) (Rattus norvegicus, UniProt P28646). The experiment in a line: somatostatin receptor affinity (pKd), rat. In kind it is binding.
Source text: as §1

The target in assay [3] is T1, Somatostatin sst1 receptors (Homo sapiens, UniProt P30872). The assay can be described thus: somatostatin receptor affinity (pKd), human. It counts as binding.
Source text: as §1

In assay [4] the target is T1, Somatostatin sst1 receptors.

SMILES strings stand for the structures. Read-outs that look alike come from different tables or passages of the source.

T1 sequence (P30872 whole entry): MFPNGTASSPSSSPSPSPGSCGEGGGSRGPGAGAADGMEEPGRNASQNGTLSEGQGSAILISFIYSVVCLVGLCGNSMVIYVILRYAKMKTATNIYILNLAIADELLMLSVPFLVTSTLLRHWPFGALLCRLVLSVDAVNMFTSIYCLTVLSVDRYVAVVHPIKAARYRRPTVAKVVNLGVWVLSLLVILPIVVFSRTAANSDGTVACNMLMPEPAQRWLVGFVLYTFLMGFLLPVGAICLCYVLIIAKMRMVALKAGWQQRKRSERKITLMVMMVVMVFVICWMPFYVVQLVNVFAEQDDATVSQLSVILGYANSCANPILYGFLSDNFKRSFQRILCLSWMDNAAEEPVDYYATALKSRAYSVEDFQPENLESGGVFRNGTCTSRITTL
Chain of somatostatin receptors (sst1) (Rattus norvegicus, UniProt P28646) (P28646 whole entry): as the sequence (P30872 whole entry) above, with S8P, S11T, P16S, S20G, G25V, G26C, A32S, A45S, T385A, T389S counted along it
Chain of somatostatin receptors (sst1) (Mus musculus, UniProt P30873) (P30873 whole entry): as the sequence (P30872 whole entry) above, with G25A, G26C, A32S, T385A, T389S counted along it

For `CN(CCC(=O)N1CCN(c2ccc(F)c(F)c2)CC1)CCC1c2ccccc2Oc2ccccc21` [Compound A, 1-[4-(3,4-difluoro-phenyl)-piperazin-1-yl]-3-{methyl-[2-(9H-xanthen-9-yl)-ethyl]-amino}-propan-1-one], the Kd in assay [1] is 3.98 to 10 nM; in assay [2], 0.794 nM; in assay [3], 1.58 to 5.01 nM. The “duration of social contacts of the intruder rat towards the resident rat” value with intruder rat is recorded as “significantly increase”. In the assay on mice, the learning/memory performance result is “specific enhancing effect”.

Turning to `CN(CCC(=O)N1CCN(c2ccc(F)c(F)c2)CC1)CCC1c2ccccc2-c2ccccc21` [Compound B, 1-[4-(3,4-difluoro-phenyl)-piperazin-1-yl]-3-{[2-(9H-fluoren-9-yl)-ethyl]-methyl-amino}-propan-1-one], the “selectivity among somatostatin receptors” value in assay [4] is “sst1 selective”. Also, the Kd in assay [1] was 2.51 to 5.01 nM; in assay [2] (rat, read-out: pKd (converted)), 0.501 nM; in assay [3], 2.51 to 6.31 nM. Further, the “duration of social contacts of the intruder rat towards the resident rat” value in the assay with intruder rat was “significantly increase”. In addition, the learning/memory performance result in the assay with mice is “specific enhancing effect”.
